# “Also recorded” adds a separate entry of the source. Where two headings read alike, the source gives them in different places.
# What was measured:
# HFF cells = experiment: MTT cytotoxicity on HFF host cells; assay type: cell-based
# Experimental: (§1) Antiparasitic activity of a compound is represented by ICo50, which is calculated with Prism software (Prism4 for MacOSX Version 5.0b, December 2008). The cytoxicity of a compound against the host cells of L. infantum and T. gondii, such as THP-1 or HFF cells, was determined with a MTT assay, according to previously described protocol (Sereno et al., Antimicrob Agents Chemother. 2001, 45(4):1168-73). THP-1 is derived from the peripheral blood ofa human with acute monocytic leukemia.
# Babesia = Babesia proliferation; assay type: cell-based
# [1] = tested on: type II Prugniaud parasites; experiment: Type II Prugniaud Toxoplasma proliferation in HFF; assay type: cell-based, Toxoplasma gondii; conditions: 0.025 to 0.8 uM, 24 h
# Experimental: To compare the activity of compounds according to the invention to that of prior art on toxoplasma proliferation, human foreskin fibroblasts (HFF) were plated in 96-wells plate (10 000 cells per well). Twenty-four hours later, cells were infected with 40 000 parasites, either RH-YFP type I or type II Prugniaud parasites or tachyzoites (kindly provided by B. Striepen, Athens) for one hour. Cells were then washed and drugs (compound D16 of formula
# (FIG. 4 and FIG. 5) or compound according to the invention (363) (FIG. 6) added at various concentrations ranging from 0.025 to 0.8 uM. After 24 h, cells were washed and fixed (PBS-formaldehyde 2%) and nucleus stained with Hoechst 33258 (2 μg/ml). The number of infected cells ie. cells harbouring a parasitophorous vacuole and the number of parasites per vacuole was determined using an Olympus ScanR microscope (Olympus).
# recombinant HDAC 8 = biological target: T1, recombinant HDAC 8 (Homo sapiens, UniProt Q9BY41); experiment: Recombinant HDAC8 inhibition; assay type: biochemical
# T1 sequence (Q9BY41 1-377): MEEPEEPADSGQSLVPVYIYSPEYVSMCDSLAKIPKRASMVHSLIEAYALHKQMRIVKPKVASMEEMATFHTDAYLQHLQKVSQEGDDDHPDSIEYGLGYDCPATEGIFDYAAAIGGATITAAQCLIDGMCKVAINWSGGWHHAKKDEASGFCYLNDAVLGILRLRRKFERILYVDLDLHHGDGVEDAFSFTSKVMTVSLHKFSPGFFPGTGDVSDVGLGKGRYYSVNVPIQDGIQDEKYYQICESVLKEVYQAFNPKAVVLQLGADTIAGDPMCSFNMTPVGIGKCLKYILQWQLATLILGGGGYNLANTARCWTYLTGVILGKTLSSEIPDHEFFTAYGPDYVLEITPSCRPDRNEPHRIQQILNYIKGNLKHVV
# recombinant HDAC6 = biological target: T2, recombinant HDAC6 (Homo sapiens, UniProt Q9UBN7); experiment: Recombinant HDAC6 inhibition; assay type: biochemical
# T2 sequence (Q9UBN7 1-1215): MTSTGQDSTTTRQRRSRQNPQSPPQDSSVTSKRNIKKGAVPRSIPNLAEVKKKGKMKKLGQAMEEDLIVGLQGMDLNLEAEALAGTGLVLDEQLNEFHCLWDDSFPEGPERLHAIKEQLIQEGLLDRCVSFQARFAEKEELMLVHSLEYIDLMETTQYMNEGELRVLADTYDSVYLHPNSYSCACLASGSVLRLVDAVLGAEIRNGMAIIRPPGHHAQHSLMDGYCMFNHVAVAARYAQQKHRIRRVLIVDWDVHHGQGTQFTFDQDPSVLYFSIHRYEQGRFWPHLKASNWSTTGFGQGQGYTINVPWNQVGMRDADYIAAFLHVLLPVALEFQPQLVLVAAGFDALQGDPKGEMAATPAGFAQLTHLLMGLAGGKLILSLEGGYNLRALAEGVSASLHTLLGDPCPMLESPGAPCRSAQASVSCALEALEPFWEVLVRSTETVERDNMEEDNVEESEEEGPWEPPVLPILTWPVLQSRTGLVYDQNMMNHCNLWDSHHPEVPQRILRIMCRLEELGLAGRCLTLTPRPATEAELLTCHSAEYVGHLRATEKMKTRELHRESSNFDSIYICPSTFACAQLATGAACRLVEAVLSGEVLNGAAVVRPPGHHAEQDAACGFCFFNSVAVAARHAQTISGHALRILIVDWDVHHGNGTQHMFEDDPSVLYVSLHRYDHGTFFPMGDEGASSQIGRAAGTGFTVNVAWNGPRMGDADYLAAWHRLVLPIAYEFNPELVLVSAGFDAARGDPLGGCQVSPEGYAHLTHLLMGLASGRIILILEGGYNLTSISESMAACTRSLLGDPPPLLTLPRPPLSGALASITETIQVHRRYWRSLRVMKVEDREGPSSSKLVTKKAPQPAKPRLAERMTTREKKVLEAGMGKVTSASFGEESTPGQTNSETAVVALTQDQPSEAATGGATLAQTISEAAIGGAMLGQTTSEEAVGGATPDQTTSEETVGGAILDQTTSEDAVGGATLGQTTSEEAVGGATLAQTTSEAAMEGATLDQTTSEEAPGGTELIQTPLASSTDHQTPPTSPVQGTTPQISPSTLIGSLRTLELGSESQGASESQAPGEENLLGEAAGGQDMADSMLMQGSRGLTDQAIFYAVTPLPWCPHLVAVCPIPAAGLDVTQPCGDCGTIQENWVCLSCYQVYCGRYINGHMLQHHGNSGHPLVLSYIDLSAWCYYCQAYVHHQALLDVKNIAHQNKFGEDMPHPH
# recombinant HDAC1 = recombinant HDAC1 (Homo sapiens, UniProt Q13547); experiment: Recombinant HDAC1 inhibition; assay type: biochemical
# Experimental: FIG. 2 illustrates the capacity of the different compounds of 600 nM to inhibit HDAC activity from HELA nuclear extract and from HDAC-recombinant proteins (HDAC 1, HDAC 3, HDAC 6, HDAC 8).
# HDAC inhibitory activity was determined by a fluorimetric HDAC assay kit (Active-motif, Belgium), according to manufacturer's instructions. Briefly, 30 μL of HeLa nuclear extract were mixed with 5 μL of 10× compound to be tested and 10 μL of assay buffer. Fluorogenic substrate (10 μL) was added, reaction was allowed to proceed for 30 min at room temperature, then stopped by the addition of a developer containing Tichostatin A. Fluorescence was monitored after 30 min at excitation and emission wavelengths of 360 and 460 nm, respectively. […].
# THP-1 cells = experiment: MTT cytotoxicity on THP-1 host cells; assay type: cell-based
# Experimental: as §1
# [2] = tested on: deacetylase activity in total protein extracts of T. gondii; experiment: Deacetylase activity in total protein extracts of T. gondii; assay type: biochemical; conditions: 125 nM
# recombinant HDAC3 = recombinant HDAC3 (Homo sapiens, UniProt O15379); experiment: Recombinant HDAC3 inhibition; assay type: biochemical
# [3] = tested on: HDAC activity from HELA nuclear extract; experiment: Fluorimetric HDAC assay, HeLa nuclear extract; assay type: biochemical, human; conditions: read-out: IC50 (better HDAC inhibitor among 9 tested compounds)
# Experimental: (§2) HDAC inhibitory activity was determined by a fluorimetric HDAC assay kit (Active-motif, Belgium), according to manufacturer's instructions. […] Fluorogenic substrate (10 μL) was added, reaction was allowed to proceed for 30 min at room temperature, then stopped by the addition of a developer containing Tichostatin A.
# [4] = tested on: T3, HDAC activity from HELA nuclear extract; experiment: Fluorimetric HDAC assay, HeLa nuclear extract; assay type: biochemical, human; conditions: 600 nM; HELA nuclear extract and HDAC-recombinant proteins
# T3 construct: other: 600 nM; HELA nuclear extract and HDAC-recombinant proteins
# Experimental: as §2
# [5] = tested on: T4, HDAC activity from HELA nuclear extract; experiment: Fluorimetric HDAC assay, HeLa nuclear extract; assay type: biochemical, human; conditions: HeLa nuclear extract, fluorimetric HDAC kit; read-out: HELA Nuclear extracts IC50
# T4 construct: HELA Nuclear extracts IC50; other: HeLa nuclear extract, fluorimetric HDAC kit; […]
# Experimental: as §2
# recombinant HDAC3, sequence (O15379 whole entry): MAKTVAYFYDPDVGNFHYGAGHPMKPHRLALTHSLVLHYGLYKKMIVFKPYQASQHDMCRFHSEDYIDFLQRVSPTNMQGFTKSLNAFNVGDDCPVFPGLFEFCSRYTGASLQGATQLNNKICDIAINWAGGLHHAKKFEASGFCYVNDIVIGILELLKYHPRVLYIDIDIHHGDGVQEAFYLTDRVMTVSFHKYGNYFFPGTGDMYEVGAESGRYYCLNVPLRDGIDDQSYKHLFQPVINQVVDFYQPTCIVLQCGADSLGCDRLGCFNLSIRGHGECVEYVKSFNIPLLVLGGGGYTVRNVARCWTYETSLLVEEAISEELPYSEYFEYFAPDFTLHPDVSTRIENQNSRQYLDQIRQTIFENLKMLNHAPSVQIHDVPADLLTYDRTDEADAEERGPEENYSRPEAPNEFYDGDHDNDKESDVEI
# recombinant HDAC3, sequence (Q9Y618 395-489 partner limits assumed): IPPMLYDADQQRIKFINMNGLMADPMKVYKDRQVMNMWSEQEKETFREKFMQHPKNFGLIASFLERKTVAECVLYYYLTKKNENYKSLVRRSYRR
# recombinant HDAC1, sequence (Q13547 whole entry): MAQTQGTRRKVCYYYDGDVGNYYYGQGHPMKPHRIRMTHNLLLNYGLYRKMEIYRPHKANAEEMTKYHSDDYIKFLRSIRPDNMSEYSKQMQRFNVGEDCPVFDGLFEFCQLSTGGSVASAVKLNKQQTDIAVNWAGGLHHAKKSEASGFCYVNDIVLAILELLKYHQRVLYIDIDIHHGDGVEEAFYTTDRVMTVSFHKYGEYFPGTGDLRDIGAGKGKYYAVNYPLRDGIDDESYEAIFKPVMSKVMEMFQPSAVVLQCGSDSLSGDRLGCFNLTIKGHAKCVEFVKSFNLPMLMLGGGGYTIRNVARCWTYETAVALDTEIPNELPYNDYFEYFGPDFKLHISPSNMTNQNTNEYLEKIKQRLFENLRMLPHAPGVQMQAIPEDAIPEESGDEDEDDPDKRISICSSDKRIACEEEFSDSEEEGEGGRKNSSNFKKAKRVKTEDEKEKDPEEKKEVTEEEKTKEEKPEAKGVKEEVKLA
smiles,measurement,setting,value
COc1cccc(CC(=O)Nc2ccc(C(=O)NO)cc2)c1 [Compound 363],IS Selectivity index LD50 (HFF)/IC50 T. gondii,HFF cells; HFF,300
same,HFF LD50,HFF cells; human,105 ± 10.5 µM
same,IC50,Babesia,~1000 nM
same,"inhibitory activity on type II Prugniaud parasites proliferation, in words",[1],potent inhibitory effect; also recorded: potent inhibitory activity
same,IC50,recombinant HDAC 8,863 nM
same,IC50,recombinant HDAC6,45 nM
same,IC50,recombinant HDAC1,257 nM
same,IS Selectivity index LD50 (THP-1)/IC50 T. gondii,THP-1 cells; THP-1,10.3
same,THP-1 LD50,THP-1 cells; human,3.6 ± 0.5 µM
same,"inhibitory effect on deacetylase activity of T. gondii extracts, in words",[2],strong inhibitory effect
same,inhibition of T. gondii deacetylase activity,[2]; total protein extracts,44%
same,IC50,recombinant HDAC3,160 nM
same,IC50,[3],3600 nM
same,"inhibition of human HDAC activity (FIG. 2), in words",[4],most potent inhibitor
same,IC50,[5],85 nM
